Data on one molecule can be found in US5648373A, “CoA-IT and PAF inhibitors” (SmithKline Beecham Corporation, priority 1992, dated 1997).

Assay [1] deals with intact human neutrophils. The experiment in a line: Movement of [3H]arachidonate into 1-ether-linked phospholipids in intact non-stimulated neutrophils (method e). It counts as cell-based. To be noted: various concentrations, 2 hours, no cellular stimulation. The protocol: CoA-IT activity can also be measured in intact cells by following the movement of a pulse of [^3 H]arachidonate as it moves into the "pool 2" phospholipids (1-alkyl and 1-alkenyl phospholipids) in inflammatory cells. These specific studies were performed in intact human neutrophils, which contain CoA-IT activity and transfer arachidonate into 1-alkyl and 1-alkenyl phospholipids. To determine the effects of Compound 3 on this transfer of arachidonate, neutrophils were exposed briefly to [^3 H]arachidonic acid to allow incorporation of the label into 1-acyl phospholipids, treated with various concentrations of Compound 3 and the movement of [^3 H]arachidonate between phospholipid subclasses assessed over the subsequent 2 hours in the absence of cellular stimulation.
Measurement of the effect of CoA-IT inhibitors on the transfer of [^3 H]arachidonate into 1-ether phospholipids in non-stimulated inflammatory cells can be accomplished by general application of the following specific method. Human neutrophils were isolated and resuspended (5×10^7 /ml) in Hanks Balanced Salt Solution (HBSS; Gibco). […] The phospholipid subclasses were separated by TLC in benzene/hexane/ethyl ether (50:45:4, v/v), located by image analysis (Bioscan) and the amount of radioactivity in each class was determined by zonal scraping and liquid scintillation counting.

Assay [2] has as its system mouse bone marrow-derived mast cells. Put plainly: Arachidonate content of cellular phospholipids of mast cells (method e). It counts as cell-based. The protocol: As treatment of intact cells blocks the movement of arachidonate into specific cellular phospholipids, it followed that prolonged treatment of inflammatory cells with CoA-IT inhibitors could deplete their large endogenous pools of arachidonate within phospholipids. To determine that CoA-IT inhibition can alter the amount of arachidonate within cellular phospholipids, mouse bone marrow-derived mast cells were treated with Compound 3 for 24 hours and the mass of arachidonate within total cellular phospholipids was determined. Compound 3 induced a concentration-dependentreduction in the total cellular arachidonate within mast cells, with greater than 75% reduction apparent at 20 μM. […]
The following is the method for assessing the ability of a compound to alter arachidonate content of cellular phospholipids, which can be generalized for any desired cell. […] The radioactive and mole quantities of arachidonate in complex lipids are determined. At this point, cellular lipid extracts are treated with KOH (0.5M) to remove fatty acids from complex lipids (phospholipids) and the quantities of arachidonate in these extracts can then be determined by various methods, including gas chromatography and mass spectrometry (Chilton [Methods Enzymol. (1990) 187, 157-166]).

In assay [3] the test system is human neutrophils. The experiment in a line: Arachidonic acid release assay (assay b), A23187-challenged neutrophils. The class given is cell-based. The protocol:
Human neutrophils were obtained in the laboratory using three different methods. One method used leukophoresis packs from normal humans and neutrophils were isolated using the histopaque-1077 technique. The blood was centrifuged at 300× g for 10 minutes. The cell pellets were resuspended in PBS composed of 137 mM NaCI, 8.8 mM Na2HPO4, 1.5 mM KH2PO4, 2.7 mM KCI (Dulbecco's Gibco Laboratories, Long Island, N.Y.) and layered over histopaque-1077 (Sigma, St. Louis, Mo.). The pellets were collected after centrifugation (300× g for 30 minutes) and washed once in PBS. The cell pellets were exposed briefly to dionized water to Iyse any erythrocytes. The remaining cells were collected by centrifugation, suspended in PBS, counted and identified after cytospinning and staining. The final leukocyte preparation was of greater than 95% purity and viability.
The second method isolated human neutrophils from fresh heparinized normal blood using the Histopaque-1077 technique. […] The remaining cells were collected by centrifugation, suspended in PBS, counted and identified after cytospinning and staining. […]
The third method isolated human neutrophils from freshly drawn heparinized normal blood using the Percoll technique. […] The neutrophils were suspended in PBS, counted and identified after cytospinning and staining. […]

Assay [4] has as its system human neutrophils. The experiment in a line: Assay for production of platelet-activating factor (assay c), A23187-challenged neutrophils. The class given is cell-based. The protocol:
Blood was obtained from normal humans and neutrophils were isolated as described for the arachidonic acid release assay, above. The final leukocyte preparation was of greater than 95% purity and viability.
Neutrophils were suspended in PBS at concentrations of 5 to 20×10^6 cells per ml. Cells were added to test tubes and treated with the desired compounds for 5 to 10 minutes, then challenged with calcium ionophore A23187, 2 μM and 20-30 μCi of [^3 H]acetic acid (NEN-Dupont, Boston, Mass.), or the vehicle of PBS with 0.25-1 mg/ml […]. After 5 to 20 minutes, the reactions were terminated by addition of an equal volume of chloroform:methanol (1:2, v/v) to the samples and the lipids were extracted by addition of equal volumes of chloroform and distilled water. The samples were vortexed and centrifuged at high speed and the chloroform layer removed to a clean tube.
The chloroform from each tube was evaporated to dryness and the material suspended in a small volume of chloroform or chloroform:methanol (25-100 μl) and the total material spotted on a Silica TLC plate. The plates were developed in chloroform/methanol/acetic acid/water (50:25:8:4, v/v) visualized by radioscanning (Bioscan) and the product, [^3 H]PAF, was scraped and quantified by liquid scintillation spectroscopy. With this TLC system, the Rf value for a synthetic standard of PAF was approximately 0.33.

Assay [5] concerns TPA-induced inflammation in the mouse ear. Put plainly: TPA-induced inflammation of the mouse ear (assay d): ear thickness, myeloperoxidase. The class given is in vivo. To be noted: topical TPA. The protocol: The ability of compounds that inhibit CoA-IT to affect in vivo inflammatory responses was assessed. Inflammatory responses were induced in the mouse ear by the topical application of a pro-inflammatory agent, such as 12-0-tetradecanoylphorbol 13-acetate. This produced an edematous response, as measured by increases in ear thickness, as well as increased inflammatory cellular infiltrate, as measured by increases in myeloperoxidase activity as described in the methods.
Male Balb/c inbred mice were obtained from Charle River Breeding Laboratories (Kingston, N.Y.). Within a single experiment mice (22-25 g) were age-matched. These in vivo experiments typically involved use of 5-6 animals/group.
TPA (12-0-tetradecanoylphorbol 13-acetate) (Sigma Chemical Company) in acetone (4 μg/20 μl) was applied to the inner and outer surfaces of the left ear of BALB/c male mice. The thickness of both ears was then measured with a dial micrometer (Mitutoyo, Japan) at both 2 and 4 hours after treatment, and the data expressed as the change in thickness (10-^3 cm) between treated and untreated ears. […] After measuring the edema, the inflammed left ears were removed and stored at -70° C. until they were assayed for MPO (myeloperoxidase) activity where appropriate. […]

“Also recorded” adds a separate entry of the source.

For the molecule `CCOP(=O)(CCCCCCCn1c(-c2ccccc2)c(-c2ccccc2)n(-c2ccccc2)c1=O)OCC` [Compound 3, Diethyl 7-(3-4-5-triphenyl-2-oxo-2-3-dihydroimidazol-1-yl)heptane phosphonate], the “movement of [3H]arachidonate into 1-ether-linked phospholipids, 1-alkyl PC and 1-alkenyl PE” value in assay [1] is recorded as “concentration-dependent blockade; also recorded: completely block”; in assay [1] (listed as Example 3), “concentration-dependent blockade”. For the same molecule, in assay [2] (24 hours, various concentrations), the “loss of arachidonate from all major phospholipid classes of the mast cell” value is on record as “concentration-dependent loss”. Further, the “loss in the mass of 18:0, 18:1, 18:2 from PI, PE and PC” value in assay [2] (mast cells) is recorded as “no loss”. For the same molecule, the “inhibition of free arachidonic acid release” value in assay [3] is “completely and in a concentration dependent fashion; also recorded: inhibition”. The “inhibition of PAF production” value in assay [4] is “completely and in a concentration dependent fashion; also recorded: inhibition”. Besides, the “anti-inflammatory effect in vivo (TPA-induced mouse ear inflammation)” value in assay [5] (listed as Example 3) is listed as “positive inhibition; also recorded: anti-inflammatory responses”; in assay [5] (listed as compound 3), “anti-inflammatory effect”.
